From patent US10125134B2 (Mirati Therapeutics, Inc., priority 2016, dated 2018)
Where two headings read alike, the source gives them in different places.

Experiments:
[1] = test system: NCI-H358 cells (express KRas G12C), Phospho-ERK; test: Cellular inhibition of KRas G12C: Phospho-ERK in NCI-H358 cells; type: cell-based; details: Homo sapiens, pERK(Thr202/Tyr204) normalized with GAPDH, NCI-H358 cells, 3 hours, read-out: IC50
Outline: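 IC50 derived by 4-parameter fit of GAPDH-normalized pERK(Thr202/Tyr204) signal, as percent of DMSO control. Signal came from in-cell immunodetection with infrared secondaries after 3 h compound exposure of KRas G12C NCI-H358 cells at 0.5% DMSO.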

KRas G12C = KRas G12C (Homo sapiens, UniProt P01116, C118S/C51S/C80L/G12C); test: KRas G12C Modification Assay (LCMS detection of covalent adduct); type: binding; details: normalized percent of control; tested at 5 μM concentration for 3 hours
Outline: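 Cys-light KRas G12C mutant protein incubated with compound in K-Ras assay buffer, reactions quenched at set time points with 25 mM acetic acid and analysed by intact-protein LC/MS on a C-3 column. Deconvoluted mass heights expressed as percent of control (POC) relative to compound-free protein.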

| POC (KRas G12C) | SMILES | IC50 [1] | IC50 ([1]; NCI-H358, 3 h) |
| --- | --- | --- | --- |
| C (“C”>50% POC) | C=CC(=O)N1CCN(c2nc(OCC3CN(C)CCN3C)nc3c2CCN(c2cc(O)cc4ccccc24)C3)CC1 (centres unmarked) [Example 219, 1-(4-(2-((1,4-dimethylpiperazin-2-yl)methoxy)-7-(3-hydroxynaphthalen-1-yl)-5,6,7,8-tetrahydropyrido[3,4-d]pyrimidin-4-yl)piperazin-1-yl)prop-2-en-1-one] | – | > 1000 nM |
| C (“C”>50% POC) | C=CC(=O)N1CCN(c2nc(OC[C@@H]3C[C@H](F)CN3C)nc3c2CCN(c2cccc4ccccc24)C3)CC1CC#N (stereo partly drawn) [Example 221, 2-(1-acryloyl-4-(2-(((2S,4S)-4-fluoro-1-methylpyrrolidin-2-yl)methoxy)-7-(naphthalen-1-yl)-5,6,7,8-tetrahydropyrido[3,4-d]pyrimidin-4-yl)piperazin-2-yl)acetonitrile] | – | 0.1 to 1000 nM |
| C (“C”>50% POC) | C=CC(=O)N1CCN(c2nc(OC[C@@H]3C[C@H](OC)CN3C)nc3c2CCN(c2cccc4ccccc24)C3)CC1CC#N (stereo partly drawn) [Example 222, 2-(1-acryloyl-4-(2-(((2S,4S)-4-methoxy-1-methylpyrrolidin-2-yl)methoxy)-7-(naphthalen-1-yl)-5,6,7,8-tetrahydropyrido[3,4-d]pyrimidin-4-yl)piperazin-2-yl)acetonitrile] | – | 0.1 to 1000 nM |
| C (“C”>50% POC) | C=CC(=O)N1CCN(c2nc(OC[C@@H]3CN(C)CCN3)nc3c2CCN(c2cccc4ccccc24)C3)CC1CC#N (stereo partly drawn) [Example 223, 2-(1-acryloyl-4-(2-(((S)-4-methylpiperazin-2-yl)methoxy)-7-(naphthalen-1-yl)-5,6,7,8-tetrahydropyrido[3,4-d]pyrimidin-4-yl)piperazin-2-yl)acetonitrile] | – | 0.1 to 1000 nM |
| C (“C”>50% POC) | C=CC(=O)N1CCN(c2nc(OC[C@H]3CN(C)CCN3)nc3c2CCN(c2cccc4ccccc24)C3)CC1CC#N (stereo partly drawn) [Example 224, 2-(1-acryloyl-4-(2-(((R)-4-methylpiperazin-2-yl)methoxy)-7-(naphthalen-1-yl)-5,6,7,8-tetrahydropyrido[3,4-d]pyrimidin-4-yl)piperazin-2-yl)acetonitrile] | – | 0.1 to 1000 nM |
| C (“C”>50% POC) | C=CC(=O)N1CCN(c2nc(OC[C@@H]3CCCN3C)nc3c2CCN(c2cc(F)ccc2OC(F)(F)F)C3)CC1CC#N (stereo partly drawn) [Example 225, 2-(1-acryloyl-4-(7-(5-fluoro-2-(trifluoromethoxy)phenyl)-2-(((S)-1-methylpyrrolidin-2-yl)methoxy)-5,6,7,8-tetrahydropyrido[3,4-d]pyrimidin-4-yl)piperazin-2-yl)acetonitrile] | – | 0.1 to 1000 nM |
| C (“C”>50% POC) | C=CC(=O)N1CCN(c2nc(OC[C@@H]3CCCN3C)nc3c2CCN(c2cccnc2C(F)(F)F)C3)CC1CC#N (stereo partly drawn) [Example 226, 2-(1-acryloyl-4-(2-(((S)-1-methylpyrrolidin-2-yl)methoxy)-7-(2-(trifluoromethyl)pyridin-3-yl)-5,6,7,8-tetrahydropyrido[3,4-d]pyrimidin-4-yl)piperazin-2-yl)acetonitrile] | – | 0.1 to 1000 nM |
| A (“A”≤25% POC) | C=CC(=O)N1CCN(c2nc(OC[C@@H]3CCCN3C)nc3c2CCN(c2ccccc2F)C3)CC1CC#N (stereo partly drawn) [Example 227, 2-(1-acryloyl-4-(7-(2-fluorophenyl)-2-(((S)-1-methylpyrrolidin-2-yl)methoxy)-5,6,7,8-tetrahydropyrido[3,4-d]pyrimidin-4-yl)piperazin-2-yl)acetonitrile] | – | 0.1 to 1000 nM |
| C (“C”>50% POC) | C=CC(=O)N1CCN(c2nc(OC[C@@H]3CCCN3C)nc3c2CCN(c2cccc(C)c2C)C3)CC1CC#N (stereo partly drawn) [Example 228, 2-(1-acryloyl-4-(7-(2,3-dimethylphenyl)-2-(((S)-1-methylpyrrolidin-2-yl)methoxy)-5,6,7,8-tetrahydropyrido[3,4-d]pyrimidin-4-yl)piperazin-2-yl)acetonitrile] | – | 0.1 to 1000 nM |
| C (“C”>50% POC) | C=CC(=O)N1CCN(c2nc(OC[C@@H]3CCCN3C)nc3c2CCN(c2ccccc2Cl)C3)CC1CC#N (stereo partly drawn) [Example 229, 2-(1-acryloyl-4-(7-(2-chlorophenyl)-2-(((S)-1-methylpyrrolidin-2-yl)methoxy)-5,6,7,8-tetrahydropyrido[3,4-d]pyrimidin-4-yl)piperazin-2-yl)acetonitrile] | – | 0.1 to 1000 nM |

Second part, the molecule before the results:

| SMILES | POC (KRas G12C) | IC50 [1] | IC50 ([1]; NCI-H358, 3 h) |
| --- | --- | --- | --- |
| C=CC(=O)N1CCN(c2nc(OCCCN3CC4CC4C3)nc3c2CCN(c2cc(O)cc4ccccc24)C3)CC1 (centres unmarked) [Example 206, 1-(4-(2-(3-(3-azabicyclo[3.1.0]hexan-3-yl)propoxy)-7-(3-hydroxynaphthalen-1-yl)-5,6,7,8-tetrahydropyrido[3,4-d]pyrimidin-4-yl)piperazin-1-yl)prop-2-en-1-one] | C (“C”>50% POC) | 0.1 to 1000 nM | – |
| C=CC(=O)N1CCN(c2nc(OCCN3CCC[C@@H](F)C3)nc3c2CCN(c2cc(O)cc4ccccc24)C3)CC1 [Example 207, (R)-1-(4-(2-(2-(3-fluoropiperidin-1-yl)ethoxy)-7-(3-hydroxynaphthalen-1-yl)-5,6,7,8-tetrahydropyrido[3,4-d]pyrimidin-4-yl)piperazin-1-yl)prop-2-en-1-one] | C (“C”>50% POC) | > 1000 nM | – |
| C=CC(=O)N1CCN(c2nc(OCCCN3C[C@@H](F)[C@@H](F)C3)nc3c2CCN(c2cc(O)cc4ccccc24)C3)CC1 [Example 208, 1-(4-(2-(3-((3R,4S)-3,4-difluoropyrrolidin-1-yl)propoxy)-7-(3-hydroxynaphthalen-1-yl)-5,6,7,8-tetrahydropyrido[3,4-d]pyrimidin-4-yl)piperazin-1-yl)prop-2-en-1-one] | C (“C”>50% POC) | > 1000 nM | – |
| C=CC(=O)N1CCN(c2nc(OCCCN3CCOCC3)nc3c2CCN(c2c(C)ccc4[nH]ccc24)C3)CC1 [Example 209, 1-(4-(7-(5-methyl-1H-indol-4-yl)-2-(3-morpholinopropoxy)-5,6,7,8-tetrahydropyrido[3,4-d]pyrimidin-4-yl)piperazin-1-yl)prop-2-en-1-one] | C (“C”>50% POC) | > 1000 nM | – |
| C=CC(=O)N1CCN(c2nc(OC[C@@H]3CCCN3C)nc3c2CCN(c2ccccc2C(F)(F)F)C3)CC1CC#N (stereo partly drawn) [Example 210, 2-(1-acryloyl-4-(2-(((S)-1-methylpyrrolidin-2-yl)methoxy)-7-(2-(trifluoromethyl)phenyl)-5,6,7,8-tetrahydropyrido[3,4-d]pyrimidin-4-yl)piperazin-2-yl)acetonitrile] | C (“C”>50% POC) | 0.1 to 1000 nM | – |
| C=CC(=O)N1CCN(c2nc(OC[C@@H]3CCCN3C)nc3c2CCN(c2ccccc2OC(F)(F)F)C3)CC1CC#N (stereo partly drawn) [Example 211, 2-(1-acryloyl-4-(2-(((S)-1-methylpyrrolidin-2-yl)methoxy)-7-(2-(trifluoromethoxy)phenyl)-5,6,7,8-tetrahydropyrido[3,4-d]pyrimidin-4-yl)piperazin-2-yl)acetonitrile] | C (“C”>50% POC) | – | 0.1 to 1000 nM |
| C=CC(=O)N1CCN(c2nc(OC[C@@H]3CCCN3C)nc3c2CCN(c2cnccc2C(F)(F)F)C3)CC1CC#N (stereo partly drawn) [Example 212, 2-(1-acryloyl-4-(2-(((S)-1-methylpyrrolidin-2-yl)methoxy)-7-(4-(trifluoromethyl)pyridin-3-yl)-5,6,7,8-tetrahydropyrido[3,4-d]pyrimidin-4-yl)piperazin-2-yl)acetonitrile] | C (“C”>50% POC) | – | 0.1 to 1000 nM |
| C=CC(=O)N1CCN(c2nc(OCCCN3CCOCC3)nc3c2CCN(c2cc(O)cc(C)c2C)C3)CC1 [Example 213, 1-(4-(7-(5-hydroxy-2,3-dimethylphenyl)-2-(3-morpholinopropoxy)-5,6,7,8-tetrahydropyrido[3,4-d]pyrimidin-4-yl)piperazin-1-yl)prop-2-en-1-one] | C (“C”>50% POC) | > 1000 nM | – |
| C=CC(=O)N1CCN(c2nc(OCCCN3CCOCC3)nc3c2CCN(c2cc(O)ccc2SC(F)(F)F)C3)CC1 [Example 214, 1-(4-(7-(5-hydroxy-2-((trifluoromethyl)thio)phenyl)-2-(3-morpholinopropoxy)-5,6,7,8-tetrahydropyrido[3,4-d]pyrimidin-4-yl)piperazin-1-yl)prop-2-en-1-one] | C (“C”>50% POC) | > 1000 nM | – |
| C=CC(=O)N1CCN(c2nc(OC(CO)CN3CCOCC3)nc3c2CCN(c2cc(O)cc4ccccc24)C3)CC1 (centres unmarked) [Example 217, 1-(4-(2-((1-hydroxy-3-morpholinopropan-2-yl)oxy)-7-(3-hydroxynaphthalen-1-yl)-5,6,7,8-tetrahydropyrido[3,4-d]pyrimidin-4-yl)piperazin-1-yl)prop-2-en-1-one] | C (“C”>50% POC) | – | > 1000 nM |
| C=CC(=O)N1CCN(c2nc(OC[C@@H]3C[C@@H](O)CN3C)nc3c2CCN(c2cccc4ccccc24)C3)CC1CC#N (stereo partly drawn) [Example 218, 2-(1-acryloyl-4-(2-(((2S,4R)-4-hydroxy-1-methylpyrrolidin-2-yl)methoxy)-7-(naphthalen-1-yl)-5,6,7,8-tetrahydropyrido[3,4-d]pyrimidin-4-yl)piperazin-2-yl)acetonitrile] | C (“C”>50% POC) | – | 0.1 to 1000 nM |
| C=CC(=O)N1CCN(c2nc(OC[C@@H]3C[C@@H](F)CN3C)nc3c2CCN(c2cccc4ccccc24)C3)CC1CC#N (stereo partly drawn) [Example 220, 2-(1-acryloyl-4-(2-(((2 S,4R)-4-fluoro-1-methylpyrrolidin-2-yl)methoxy)-7-(naphthalen-1-yl)-5,6,7,8-tetrahydropyrido[3,4-d]pyrimidin-4-yl)piperazin-2-yl)acetonitrile] | C (“C”>50% POC) | 0.1 to 1000 nM | – |
